# Key:
# Type in all cases: cell-based
# T2R10 (TAS2R10) = biological target: T1, T2R10 (TAS2R10) (Homo sapiens, UniProt Q9NYW0); experiment: FLIPR calcium assay, block of bitter agonist response, T2R10; settings: unsaturated fatty acid concentration of 200 µM, cells stimulated with known bitter agonist, read-out: percentage block of cellular response over baseline, 10
# T1 construct: expressed in transfected cells; host or cells: cells expressing a promiscuous G protein (e.g., G16g44)
# T1 sequence (Q9NYW0 1-307): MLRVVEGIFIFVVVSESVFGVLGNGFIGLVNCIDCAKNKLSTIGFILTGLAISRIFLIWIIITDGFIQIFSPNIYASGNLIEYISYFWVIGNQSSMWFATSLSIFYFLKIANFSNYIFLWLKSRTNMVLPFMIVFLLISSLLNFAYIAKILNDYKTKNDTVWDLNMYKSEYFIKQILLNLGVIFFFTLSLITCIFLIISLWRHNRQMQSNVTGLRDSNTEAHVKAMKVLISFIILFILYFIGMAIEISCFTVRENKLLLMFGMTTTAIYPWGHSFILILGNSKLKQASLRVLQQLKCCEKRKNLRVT
# Experimental: (§1) Cells expressing a promiscuous […] (e.g., G16g44) were transfected with vectors encoding 18 functional bitter receptor cDNAs, with one receptor per transfection. The cells were transfected directly in 384-well format high-density plates and incubated for 28 hours. Later, cells were loaded with the Ca-specific dye Fluo4-AM. After an incubation of 60 minutes, excess dye is washed off, and cells are stimulated with a known bitter agonist for each receptor and various unsaturated fatty acids. Changes in intracellular fluorescence are recorded using a FLIPR instrument. Bitter antagonists and corresponding receptors are identified based on percentage inhibition of agonist's activity on a given receptor.
# (§2) The above protocol was carried out using 16 different unsaturated fatty acids. A particular T2R receptor was identified as being antagonized by a particular unsaturated fatty acid if it triggered a >25% block of agonist's cellular response at 200 μM concentration of unsaturated fatty acid. […] Table 2 indicates the sixteen (16) compounds tested by their compound number from Table 1 above. The 18 bitter taste receptors screened are the human bitter taste receptors we named. T2R01 (TAS2R01), T2R03 (TAS2R03), T2R04 (TAS2R04), T2R07 (TAS2R07), T2R08 (TAS2R08), T2R09 (TAS2R09), T2R10 (TAS2R10), T2R13 (TAS2R13), T2R14 (TAS2R14), T2R16 (TAS2R16), T2R54 (TAS2R39, T2R61 (TAS2R43), T2R63 (TA2R20), T2R64 (TAS2R31), T2R65 (TAS2R19), T2R67 (TAS2R50), T2R71 (TAS2R41), and T2R75 (TAS2R46). The corresponding IUPHAR nomenclature for each receptor is given in parenthesis. In Table 2, these receptors are identified by the last two digits. For example, T2R01 is indicated as 01. Table 2 reports the percentage block of cellular response over baseline at an unsaturated fatty acid concentration of 200 µM.
# T2R01 (TAS2R01) = biological target: T2, T2R01 (TAS2R01) (Homo sapiens, UniProt Q9NYW7); experiment: FLIPR calcium assay, block of bitter agonist response, T2R01; settings: unsaturated fatty acid concentration of 200 µM, cells stimulated with known bitter agonist, read-out: percentage block of cellular response over baseline, 01
# T2 construct: expressed in transfected cells; host or cells: cells expressing a promiscuous G protein (e.g., G16g44)
# T2 sequence (Q9NYW7 1-299): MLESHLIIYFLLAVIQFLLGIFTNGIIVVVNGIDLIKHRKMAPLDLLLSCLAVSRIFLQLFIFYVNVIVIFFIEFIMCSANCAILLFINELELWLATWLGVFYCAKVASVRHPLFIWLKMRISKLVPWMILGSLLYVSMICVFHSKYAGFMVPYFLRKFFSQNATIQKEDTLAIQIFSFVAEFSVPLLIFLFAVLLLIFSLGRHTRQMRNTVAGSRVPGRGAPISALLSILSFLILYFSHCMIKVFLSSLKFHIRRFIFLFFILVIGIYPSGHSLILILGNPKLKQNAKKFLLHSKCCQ
# Experimental: as §1, §2
# T2R08 (TAS2R08) = biological target: T3, T2R08 (TAS2R08) (Homo sapiens, UniProt Q9NYW2); experiment: FLIPR calcium assay, block of bitter agonist response, T2R08; settings: unsaturated fatty acid concentration of 200 µM, cells stimulated with known bitter agonist, read-out: percentage block of cellular response over baseline, 08
# T3 construct: expressed in transfected cells; host or cells: cells expressing a promiscuous G protein (e.g., G16g44)
# T3 sequence (Q9NYW2 1-309): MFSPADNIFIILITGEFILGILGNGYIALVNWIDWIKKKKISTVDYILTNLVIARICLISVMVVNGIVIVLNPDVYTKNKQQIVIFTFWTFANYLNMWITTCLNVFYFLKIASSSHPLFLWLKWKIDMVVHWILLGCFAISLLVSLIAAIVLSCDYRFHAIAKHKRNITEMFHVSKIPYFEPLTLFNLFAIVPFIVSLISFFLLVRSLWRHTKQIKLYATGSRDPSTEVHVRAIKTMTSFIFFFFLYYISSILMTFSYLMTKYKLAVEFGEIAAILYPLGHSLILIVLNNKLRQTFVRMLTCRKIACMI
# Experimental: as §1, §2
# T2R14 (TAS2R14) = biological target: T4, T2R14 (TAS2R14) (Homo sapiens, UniProt Q9NYV8); experiment: FLIPR calcium assay, block of bitter agonist response, T2R14; settings: unsaturated fatty acid concentration of 200 µM, cells stimulated with known bitter agonist, read-out: percentage block of cellular response over baseline, 14
# T4 construct: expressed in transfected cells; host or cells: cells expressing a promiscuous G protein (e.g., G16g44)
# T4 sequence (Q9NYV8 1-317): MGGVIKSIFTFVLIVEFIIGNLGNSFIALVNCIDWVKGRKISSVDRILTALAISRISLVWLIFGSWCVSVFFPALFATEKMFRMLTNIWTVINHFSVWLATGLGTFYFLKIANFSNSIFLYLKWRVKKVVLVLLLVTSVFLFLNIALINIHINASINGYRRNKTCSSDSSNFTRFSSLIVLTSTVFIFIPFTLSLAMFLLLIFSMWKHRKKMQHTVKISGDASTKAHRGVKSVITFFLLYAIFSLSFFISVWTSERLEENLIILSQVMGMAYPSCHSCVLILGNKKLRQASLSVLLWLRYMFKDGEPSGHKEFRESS
# Experimental: as §1, §2
# T2R54 (TAS2R39) = biological target: T5, T2R54 (TAS2R39 (Homo sapiens, UniProt P59534)); experiment: FLIPR calcium assay, block of bitter agonist response, T2R54; settings: unsaturated fatty acid concentration of 200 µM, cells stimulated with known bitter agonist
# T5 construct: expressed in transfected cells; host or cells: cells expressing a promiscuous G protein (e.g., G16g44)
# T5 sequence (P59534 1-338): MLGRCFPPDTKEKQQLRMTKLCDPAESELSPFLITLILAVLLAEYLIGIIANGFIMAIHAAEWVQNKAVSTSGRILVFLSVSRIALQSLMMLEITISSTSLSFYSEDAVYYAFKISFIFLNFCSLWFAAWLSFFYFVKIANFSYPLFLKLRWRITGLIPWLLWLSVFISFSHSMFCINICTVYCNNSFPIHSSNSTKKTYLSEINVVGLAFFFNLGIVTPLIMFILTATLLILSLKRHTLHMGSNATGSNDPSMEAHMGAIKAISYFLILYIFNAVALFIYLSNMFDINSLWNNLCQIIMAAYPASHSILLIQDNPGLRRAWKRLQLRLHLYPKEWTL
# Experimental: as §1, §2
# T2R75 (TAS2R46) = biological target: T6, T2R75 (TAS2R46) (Homo sapiens, UniProt P59540); experiment: FLIPR calcium assay, block of bitter agonist response, T2R75; settings: unsaturated fatty acid concentration of 200 µM, cells stimulated with known bitter agonist
# T6 construct: expressed in transfected cells; host or cells: cells expressing a promiscuous G protein (e.g., G16g44)
# T6 sequence (P59540 1-309): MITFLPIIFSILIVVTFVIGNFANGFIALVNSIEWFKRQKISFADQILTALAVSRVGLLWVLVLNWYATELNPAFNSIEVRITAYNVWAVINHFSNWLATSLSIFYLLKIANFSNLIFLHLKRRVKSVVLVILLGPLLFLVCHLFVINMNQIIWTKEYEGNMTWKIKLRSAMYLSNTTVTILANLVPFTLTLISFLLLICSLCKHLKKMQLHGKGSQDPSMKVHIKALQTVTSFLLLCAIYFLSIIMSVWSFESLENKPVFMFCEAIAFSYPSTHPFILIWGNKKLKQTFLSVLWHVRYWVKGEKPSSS
# Experimental: as §1, §2
Compound,inhibition at 200 µM (T2R10 (TAS2R10)),inhibition at 200 µM (T2R01 (TAS2R01)),inhibition at 200 µM (T2R08 (TAS2R08)),inhibition at 200 µM (T2R14 (TAS2R14)),"percentage block of cellular response over baseline, 54 (T2R54 (TAS2R39))","percentage block of cellular response over baseline, 75 (T2R75 (TAS2R46))"
C=CCCCCCC(=O)O [Compound 115],> 25%,–,–,–,–,–
C=CCCCCCCCCCCC(=O)O [Compound 120],> 95%,> 50%,50%,> 40%,–,–
C=CCCCCCCC(=O)O [Compound 116],> 35%,> 25%,> 40%,–,–,–
C=CCCCCCCCCC(=O)O [Compound 118],> 75%,> 70%,65%,> 65%,>80%,75%
CCC/C=C/C(=O)O [Compound 101],> 25%,–,> 25%,–,–,–
CC(C)=CCCC(C)=CC(=O)O [Compound 128],> 90%,50%,> 25%,–,>80%,40%
CC(C)=CCCC(C)CC(=O)O (stereo not drawn) [Compound 127],50%,> 30%,–,–,>90%,35%
CC(C)/C=C/CCCCC(=O)O [Compound 123],> 30%,–,> 25%,> 25%,–,–
C=CCCCCCCCC(=O)O [Compound 117],> 70%,50%,> 55%,> 25%,>80%,40%

# Now from value to molecule:
inhibition at 200 µM (T2R10 (TAS2R10)),inhibition at 200 µM (T2R01 (TAS2R01)),inhibition at 200 µM (T2R08 (TAS2R08)),inhibition at 200 µM (T2R14 (TAS2R14)),"percentage block of cellular response over baseline, 54 (T2R54 (TAS2R39))","percentage block of cellular response over baseline, 75 (T2R75 (TAS2R46))",Compound
> 95%,> 60%,> 55%,50%,–,–,CCCCCCC/C=C/C(=O)O [Compound 105]
> 80%,55%,> 60%,> 50%,–,–,CCCCCC/C=C\CCCC(=O)O [Compound 124]
> 95%,90%,> 70%,> 90%,–,–,CCCCCCCCC/C=C/C(=O)O [Compound 107]
> 95%,80%,> 70%,80%,–,–,CCCCCCCC/C=C/C(=O)O [Compound 106]
> 60%,> 35%,> 40%,> 40%,–,–,CCCCCC/C=C/C(=O)O [Compound 104]
